Test results: patent US8652440B2, “Methods for diagnosing diseases and evaluating treatments therefor using PET” (The Trustees of Columbia University in the City of New York, priority 2007, dated 2014)
Where two headings read alike, the source gives them in different places.

Biological target: central M2 cholinergic receptors (Homo sapiens, UniProt P08172)
Conditions: mean of 11 subjects; for K1 (rate constant for transfer from plasma to the tissue) / VT (total distribution volume) / K2 (tissue clearance rate constant): 1TKA
Text: Synapse 49:150-156 (2003). […] Carson R E, Kiesewetter D O, Jagoda E, Der M G, Herscovitch P, Eckelman W C, Muscarinic cholinergic receptor measurements with [^18F]FP-TZTP: control and competition studies. […] J Nucl Med 40:30P (1999).
Step 1: To calculate group mean parameter values that can be used for computer simulation analysis, ROI TACs were fitted by one-tissue kinetic analysis “1TKA” using individual metabolite-corrected plasma input functions. The mean 1TKA parameter values from 11 subjects were then used to generate noise-free TAC data as described below in Step 3.
Step 2: ROI TAC percent noise was calculated based on deviations from 1TKA fitting (100×SD/mean) for the latter portion of the TAC (60 to 120 min) and the mean percent noise over these 11 subjects was calculated (Table 2).

Chain of central M2 cholinergic receptors (P08172 whole entry): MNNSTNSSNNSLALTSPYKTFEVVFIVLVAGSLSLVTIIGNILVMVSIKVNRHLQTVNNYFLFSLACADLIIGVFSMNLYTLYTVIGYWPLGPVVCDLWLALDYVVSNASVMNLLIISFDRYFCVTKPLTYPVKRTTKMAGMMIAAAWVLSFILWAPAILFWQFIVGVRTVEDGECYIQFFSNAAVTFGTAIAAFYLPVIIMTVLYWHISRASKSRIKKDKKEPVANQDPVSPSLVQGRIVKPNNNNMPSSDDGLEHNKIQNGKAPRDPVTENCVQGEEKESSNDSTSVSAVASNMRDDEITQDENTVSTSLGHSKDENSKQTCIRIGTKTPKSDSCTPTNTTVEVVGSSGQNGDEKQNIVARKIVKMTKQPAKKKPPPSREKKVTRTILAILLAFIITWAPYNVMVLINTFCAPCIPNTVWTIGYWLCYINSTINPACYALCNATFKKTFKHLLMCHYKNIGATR

SMILES: CN1CCC=C(c2nsnc2SCCC[18F])C1 [[^18F]FP-TZTP, 3-(3-(3-[18F]Fluropropyl)thio-1,2,5-thiadiazol-4-yl)-1,2,5,6 tetrahydro-1-methylpyridine]
- K1 (rate constant for transfer from plasma to the tissue) (cerebellum (input region, K'1)): 0.466 mL/min/cm^3
- VT (total distribution volume) (cerebellum (input region, V'T)): 43 mL/cm^3
- K2 (tissue clearance rate constant) (cerebellum (input region, k'2)): 0.0110 min⁻¹
- k2/k′2 (thalamus k2 relative to cerebellum k′2): 1.60
- K1 (rate constant for transfer from plasma to the tissue) (thalamus): 0.506 mL/min/cm^3
- K2 (tissue clearance rate constant) (thalamus): 0.0176 min⁻¹
- VT (total distribution volume) (thalamus): 29 mL/cm^3
